According to article PMC7004148, “Flexible Fragment Growing Boosts Potency of Quorum‐Sensing Inhibitors against Pseudomonas aeruginosa Virulence” (Chemmedchem, 2019):
Where “and” joins values, the source holds several entries; their conditions need not be identical. Equal entries are not always repeated. Where two headings read alike, the source gives them in different places.

Legend:
PqsR [1] = target: T1, PqsR (Pseudomonas aeruginosa, UniProt Q9I4X0); assay: biochemical; format: binding; parameters: H6SUMOPqsRc87 and T265A mutant H6SUMOPqsRc87 for ITC studies was expressed; made in house; host or cells: E. coli BL21 (λDE3)
Procedure: 3.2 Expression and Purification of H6SUMOPqsRc87
(§1) H6SUMOPqsRc87 and T265A mutant H6SUMOPqsRc87 for ITC studies was expressed and purified as previously reported.[8,9] Briefly, E. coli BL21 (λDE3) transfected with the pSUMO3_ck4_pqsRC87 or pSUMO3_ck4_T265ApqsRC87 plasmid[8] were grown in LB medium containing 50 µg mL-1 kanamycin at 37 °C to an OD600 of approximately 0.8 and expression was induced with 0.2 mM IPTG for 16 h at 16 °C. The protein was purified using nickel affinity chromatography in a one step gradient.
ITC titrations were performed as described before.[8,9] Briefly, ITC experiments were carried out using an ITC200 instrument (Microcal Inc., GE Healthcare). The titrations were performed on 50-150 µM H6SUMO-PqsRC87 in the 200 µL sample cell using 19 injections of 2 µL ligand solution (0.5-1.5 mM) every 180 s. The data were collected and the area under each peak was integrated. To correct for heats of dilution and mixing the final base line consisting of small peaks of the same size at the end of the titration were substracted.
Target sequence in this assay (Q9I4X0 87-332): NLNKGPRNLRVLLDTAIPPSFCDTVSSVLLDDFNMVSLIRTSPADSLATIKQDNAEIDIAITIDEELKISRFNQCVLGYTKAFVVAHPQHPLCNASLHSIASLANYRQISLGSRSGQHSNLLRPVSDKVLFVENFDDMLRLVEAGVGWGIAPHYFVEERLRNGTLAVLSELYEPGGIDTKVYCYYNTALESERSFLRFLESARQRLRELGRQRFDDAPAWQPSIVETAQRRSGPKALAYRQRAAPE

PqsR [2] = target: T1, PqsR; assay: PqsR β-galactosidase reporter gene assay in E. coli; format: cell-based; parameters: expressed in transfected cells; host or cells: E. coli DH5α carrying plasmid pEAL08-2; conditions: in the presence of 50 nM PQS; for IC50 (inverse agonistic/antagonistic activity): n.i.=no inhibition (activity≤15 %)
Procedure: 5. E. coli reporter-gene assay & dose-response curves
PqsR Reporter gene assay in E. coli. The inverse agonistic/antagonistic activity of potential PqsR ligands was evaluated in a β-galactosidase reporter gene assay in E. coli as previously described.[26] In short, test compounds were co-incubated with E. coli DH5α cells containing the plasmid pEAL08-2,[27] which expresses PqsR and the β-galactosidase LacZ under the control of the pqsA promoter. The inverse agonistic/antagonistic activity of compounds was measured in the presence of 50 nM PQS. After incubation, galactosidase activity was quantified photometrically and expressed as ratio of controls. The given IC50 values represent the mean of at least two independent experiments using at least eight different concentrations of test compound with n = 4. Non-linear regression analysis was done using the log (inhibitor) vs response model included in the GrapPad Prism 5.0 software package.
Target sequence in this assay (Q9I4X0 whole entry): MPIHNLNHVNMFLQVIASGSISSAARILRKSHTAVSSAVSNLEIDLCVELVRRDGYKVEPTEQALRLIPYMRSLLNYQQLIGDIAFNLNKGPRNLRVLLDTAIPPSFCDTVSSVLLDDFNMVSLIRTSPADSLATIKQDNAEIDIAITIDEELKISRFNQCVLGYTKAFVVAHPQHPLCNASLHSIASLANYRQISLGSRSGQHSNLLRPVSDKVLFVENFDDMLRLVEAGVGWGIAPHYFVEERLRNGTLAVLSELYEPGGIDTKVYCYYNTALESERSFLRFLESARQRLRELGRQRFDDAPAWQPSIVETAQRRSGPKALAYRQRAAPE

[3] = system: pyocyanin in P. aeruginosa PA14; assay: Pyocyanin assay in P. aeruginosa PA14 cultures; format: cell-based, Pseudomonas aeruginosa PA14; conditions: for IC50: mean of at least two independent experiments, SD<25 %
Procedure: 6. Effects in P. aeruginosa
Pyocyanin Assay. The inhibition of virulence factor pyocyanin was measured as described previously[26] following a procedure established by Essar et al.[28] Briefly, Pseudomonas aeruginosa PA14 cultures were grown in the presence of inhibitors or DMSO as control for 16 h. Pyocyanin was determined photometrically after extraction of the cultures with chloroform and re-extraction with 0.2 M HCl. Protonated red colored pyocyanin was determined by measuring OD520 and normalizing to OD600. None of the compound impaired bacterial viability as observed by the OD600 parameter. Inhibition values were expressed in relation to the DMSO control. Each value is the mean of at least two independent experiments with n=3.
The given IC50 values represent the mean of at least two experiments using at least five different concentrations. Curve fitting was performed using the log (inhibitor) vs response model with constrained bottom = 0 and top =100 (GraphPad Prism 5.0).
Figure S4: Inhibition of virulence factor pyocyanin was evaluated in the clinical isolate PA14.
Representative dose-response curves a) compound 11 b) compound 20. Black dotes (•) represent the reduction of pyocyanin in presents of a given compound concentration relative to DMSO control (= 0 %). The continuous black line is the none -linear regression analysis to […]
(1 picture or pasted object on this page, not shown here)

[4] = system: HQNO levels in PA14pqsH strain; assay: HQNO quantification in PA14pqsH cultures (UHPLC-MS/MS); format: cell-based; conditions: Pseudomonas aeruginosa, read-out: HQNO inhibition
Procedure: (§2) determine IC50 values using a log (inhibitor) vs. response model with constrains (bottom = 0; top =100) (Graph Pad Prism 5.04).
(§3) HHQ and HQNO Quantification. Extracellular HHQ and HQNO were measured as previously reported[29] following a modified procedure of Lépine et al.:[30] Briefly, P. aeruginosa PA14pqsH cultures were grown in the presence of DMSO as a control or DMSO solutions of inhibitors for 17 h. HHQ and HQNO were quantified from ethyl acetate extracts using 5,6,7,8-tetradeutero-2-heptyl-4(1H)-quinolone (HHQ-d4) as internal standard (IS).
(§4) UHPLC-MS/MS analysis was performed as described in detail by Storz et al.[31] The following ions were monitored (mother ion [m/z], product ion [m/z], scan time [s], scan width [m/z], […]
(§5) quantification was performed using Xcalibur software with the use of a calibration curve relative to the area of the IS. Given data represent the mean of at least two independent experiments with n=3 and were expressed as percentage inhibition relative to DMSO control.

PqsRT265A = target: T2, PqsRT265A (Pseudomonas aeruginosa, UniProt Q9I4X0, T265A); assay: ITC thermodynamic signature, PqsRwt versus PqsRT265A mutant; format: binding; conditions: comparison of thermodynamic signatures (SI, Figure S3)
T2 construct: H6SUMOPqsRc87 and T265A mutant H6SUMOPqsRc87 for ITC studies was expressed; made in house; host or cells: E. coli BL21 (λDE3)
Procedure: 3. Isothermal Titration Calorimetry
3.1 Site-directed Mutagenesis: PqsRT265A mutant
The plasmid pSUMO3_ck4_T265ApqsRC87 was generated as previously described[8] using QuikChange Site-Directed Mutagenesis Kit (Stratagene) following the manufacturer’s instructions. The following primer were used: forward 5'
3. PCR condition to amplify the T265A gene: 16 cycles with 35s denaturation at 95 °C, 60 s annealing at 55 ° C, and 13 min extension. The generated plasmid was transformed via electroporation into E. coli BL21 3.2 Expression and Purification of H6SUMOPqsRc87
as §1
ITC titrations were performed as described before.[8,9] Briefly, ITC experiments were carried out using an ITC200 instrument (Microcal Inc., GE Healthcare). The titrations were performed on 50-150 µM H6SUMO-PqsRC87 in the 200 µL sample cell using 19 injections of 2 µL ligand solution (0.5-1.5 mM) every 180 s. […]

[5] = system: HHQ levels in PA14pqsH strain; assay: HHQ quantification in PA14pqsH cultures (UHPLC-MS/MS); format: cell-based; conditions: Pseudomonas aeruginosa, read-out: HHQ inhibition
Procedure: as §2, §3, §4, §5

[6] = Table 1, EE=−ΔH/(heavy atom count)
[7] = Table 1, LE=−ΔG/(heavy atom count)

T2 sequence (Q9I4X0 87-332 T265A): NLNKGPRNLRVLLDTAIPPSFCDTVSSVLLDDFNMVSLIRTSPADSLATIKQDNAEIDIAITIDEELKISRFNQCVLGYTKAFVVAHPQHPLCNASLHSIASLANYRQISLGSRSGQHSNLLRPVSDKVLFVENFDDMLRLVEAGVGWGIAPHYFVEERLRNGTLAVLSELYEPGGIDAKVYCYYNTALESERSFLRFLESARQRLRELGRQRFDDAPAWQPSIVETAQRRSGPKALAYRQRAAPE

SMILES	Kd (PqsR [1])	EE (PqsR [1]; [6])	ΔG (PqsR [1]; Table 1, ITC at 298 K)	ΔH (PqsR [1]; Table 1, ITC at 298 K)	−TΔS (PqsR [1]; Table 1, ITC at 298 K)	LE (PqsR [1]; [7])	further results
CC(C)(C)c1ccc(C(=O)NO)cc1 [Compound 1]	4.1 ± 0.6 µM	0.63 kcal/mol	-7.4 ± 0.1 kcal/mol	-8.9 ± 0.2 kcal/mol	1.5 ± 0.3 kcal/mol	0.53 kcal/mol	
Nc1nnc(-c2cccc(C(F)(F)F)c2)o1 [Compound 2]	1.3 ± 0.3 µM	0.53 kcal/mol	-8.0 ± 0.1 kcal/mol	-8.5 ± 0.5 kcal/mol	0.4 ± 0.6 kcal/mol	0.50 kcal/mol	
Nc1cccc(Br)n1 [Compound 3]	10 ± 1.3 µM	1.17 kcal/mol	-6.8 ± 0.1 kcal/mol	-9.3 ± 0.4 kcal/mol	2.5 ± 0.4 kcal/mol	0.85 kcal/mol	IC50 (inverse agonistic/antagonistic activity) (PqsR [2]): did not show significant antagonistic activity
Nc1ccc(Br)cn1 [Compound 4]	> 50 µM						
Nc1cc(Br)ccn1 [Compound 5]	21.3 ± 3.4 µM	0.72 kcal/mol	-6.4 ± 0.1 kcal/mol	-5.8 ± 0.1 kcal/mol	-0.6 ± 0.2 kcal/mol	0.80 kcal/mol	
Nc1ncccc1Br [Compound 6]	> 50 µM						
Nc1cccc(C(F)(F)F)n1 [Compound 7]	3.1 ± 0.5 µM	1.05 kcal/mol	-7.5 ± 0.1 kcal/mol	-11.5 kcal/mol and -11.5 ± 0.9 kcal/mol	3.7 ± 1 kcal/mol	0.70 kcal/mol	inhibition at 250 µM ([3]; Pseudomonas aeruginosa, PA14, read-out: Pyocyanin inhibition): 43%
CC(=O)Nc1cccc(C(F)(F)F)n1 [Compound 8]							K D (ITC) (PqsR [1]; Table 1, ITC at 298 K, mean±SD, at least two independent experiments, >50 = no heat release detectable at solubility maximum): abolished the affinity; IC50 (inverse agonistic/antagonistic activity) (PqsR [2]): n.i.
Nc1cc(C#CC2CC2)cc(C(F)(F)F)n1 [Compound 9]	7.5 ± 0.1 µM						-TΔS (PqsR [1]; Table S1): -3.8 ± 0.6 kcal/mol; ΔG (PqsR [1]; Table S1): -6.9 ± 0.0 kcal/mol; ΔH (PqsR [1]; Table S1): -3.7 ± 0.6 kcal/mol and -3.7 kcal/mol; EE (PqsR [1]; Table S1, enthalpic efficiency): 0.23 kcal/mol; LE (PqsR [1]; Table S1, ligand efficiency): 0.43 kcal/mol; IC50 (inverse agonistic/antagonistic activity) (PqsR [2]): n.i.
Nc1cc(-c2ccc(F)cc2)cc(C(F)(F)F)n1 [Compound 10]							Inverse agonistic/antagonistic activity at a given concentration (PqsR [2]; @ 100 μM): 29 % @ 100 μM
Nc1cc(NCc2ccc(F)cc2)cc(C(F)(F)F)n1 [Compound 11]	0.6 ± 0.2 µM						inhibition at 200 µM [4]: 36 ± 3%; Enthalpic contribution, PqsRwt versus PqsRT265A (PqsRT265A): no significant difference in the enthalpic contribution; -TΔS (PqsR [1]; Table S1): 1.0 ± 0.8 kcal/mol; ΔG (PqsR [1]; Table S1): -8.4 ± 0.2 kcal/mol; ΔH (PqsR [1]; Table S1): -9.8 ± 0.8 kcal/mol; EE (PqsR [1]; Table S1, enthalpic efficiency): 0.49 kcal/mol; LE (PqsR [1]; Table S1, ligand efficiency): 0.42 kcal/mol; inhibition at 200 µM [5]: 48 ± 4%; IC50 ([3]; Pseudomonas aeruginosa, PA14, read-out: Pyocyanin IC50, PA14 cultures, photometric quantification): 105 ± 13 µM; IC50 ([3]; read-out: Pyocyanin IC50, PA14 cultures, photometric quantification): 102 µM
